{"source": "ChEMBL document CHEMBL5352409", "about": "“Design, synthesis, and pharmacological evaluation of 2-(1-(1,3,4-thiadiazol-2-yl)piperidin-4-yl)ethan-1-ol analogs as novel glutaminase 1 inhibitors” (Eur J Med Chem, 2022)", "key": {"A549 [1]": {"tested_on": "A549", "assay": "Antiproliferative activity against human A549 cells assessed as reduction in cell viability", "type": "functional, cell-based"}, "[2]": {"target": "T1, Glutaminase kidney isoform, mitochondrial (Homo sapiens, UniProt O94925)", "T1 sequence (O94925 whole entry)": "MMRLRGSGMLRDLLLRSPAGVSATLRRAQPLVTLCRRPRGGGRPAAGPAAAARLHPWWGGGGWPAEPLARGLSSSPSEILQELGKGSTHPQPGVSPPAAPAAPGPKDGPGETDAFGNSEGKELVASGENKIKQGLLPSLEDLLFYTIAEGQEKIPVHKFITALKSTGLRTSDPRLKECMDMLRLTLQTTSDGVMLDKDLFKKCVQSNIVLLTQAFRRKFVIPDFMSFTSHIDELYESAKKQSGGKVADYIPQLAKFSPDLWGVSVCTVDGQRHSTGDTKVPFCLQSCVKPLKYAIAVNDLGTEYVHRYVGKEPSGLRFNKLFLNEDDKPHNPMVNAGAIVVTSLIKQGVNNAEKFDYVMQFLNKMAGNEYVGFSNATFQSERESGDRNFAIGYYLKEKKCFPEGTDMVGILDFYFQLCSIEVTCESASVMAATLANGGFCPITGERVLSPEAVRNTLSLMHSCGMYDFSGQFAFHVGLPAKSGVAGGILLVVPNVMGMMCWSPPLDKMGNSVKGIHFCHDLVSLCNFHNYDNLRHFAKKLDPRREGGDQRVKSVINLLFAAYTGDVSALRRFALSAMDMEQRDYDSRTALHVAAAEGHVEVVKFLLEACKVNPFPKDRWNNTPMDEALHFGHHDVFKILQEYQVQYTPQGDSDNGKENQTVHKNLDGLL", "assay": "Inhibition of GLS1 (unknown origin)"}, "A549 [3]": {"tested_on": "A549", "assay": "Inhibition of glutaminase in human A549 cells assessed as ratio of glutamine to glutamate level (Rv b= 0.45 +/- 0.011)", "type": "cell-based"}, "[4]": {"assay": "Terminal half life in rat at 3 mg/kg, iv", "type": "ADME, organism-based", "conditions": "in vivo, read-out: beta t1/2 (converted)"}, "[5]": {"assay": "Terminal half life in rat at 3 mg/kg, po", "type": "ADME, organism-based", "conditions": "in vivo, read-out: beta t1/2 (converted)"}, "[6]": {"assay": "Clearance in rat at 3 mg/kg, iv", "type": "ADME, organism-based", "conditions": "in vivo"}, "[7]": {"assay": "Clearance in rat at 3 mg/kg, po", "type": "ADME, organism-based", "conditions": "in vivo"}, "[8]": {"assay": "Cmax in rat at 3 mg/kg, iv", "type": "ADME, organism-based", "parameters": "dose 3 mg/kg, route iv", "conditions": "in vivo"}, "[9]": {"assay": "Cmax in rat at 3 mg/kg, po", "type": "ADME, organism-based", "parameters": "dose 3 mg/kg, route po", "conditions": "in vivo"}, "[10]": {"assay": "AUC(0 to t) in rat at 3 mg/kg, po", "type": "ADME, organism-based", "parameters": "dose 3 mg/kg, route po", "conditions": "in vivo"}, "A549 [11]": {"tested_on": "A549", "assay": "Antitumor activity against human A549 cells xenografted in mouse model assessed as tumor growth inhibition at 100 mg/kg once daily via oral gavage administered for 28 days relative to control", "type": "functional", "parameters": "scale not given: the % may be the effect or the level left", "conditions": "time 28 day"}, "[12]": {"assay": "Oral bioavailability in rat at 3 mg/kg", "type": "ADME, organism-based", "conditions": "in vivo"}, "HCT-116 [13]": {"tested_on": "HCT-116", "assay": "Antitumor activity against human HCT-116 cells xenografted in mouse model assessed as tumor growth inhibition at 100 mg/kg once daily via oral gavage administered for 28 days relative to control", "type": "functional", "parameters": "scale not given: the % may be the effect or the level left", "conditions": "time 28 day"}, "A549 [14]": {"tested_on": "A549", "assay": "Inhibition of colony formation in human A549 cells at 2 to 8 uM", "type": "functional, cell-based", "conditions": "dose 2-8 µM"}, "HCT-116 [15]": {"tested_on": "HCT-116", "assay": "Inhibition of colony formation in human HCT-116 cells at 2 to 8 uM", "type": "functional, cell-based", "conditions": "dose 2-8 µM"}, "A549 [16]": {"tested_on": "A549", "assay": "Induction of cell cycle arrest in human A549 cells assessed as accumulation at G1 phase incubated for 48 hrs by propidium iodide staining based flow cytometry analysis", "type": "functional", "conditions": "dose 50-800 nM"}, "A549 [17]": {"tested_on": "A549", "assay": "Induction of cell cycle arrest in human A549 cells assessed as accumulation of cells at G0/G1 phase at 100 nM incubated for 48 hrs by propidium iodide staining based flow cytometry analysis (Rvb=61.61%)", "type": "functional"}, "A549 [18]": {"tested_on": "A549", "assay": "Induction of cell cycle arrest in human A549 cells assessed as accumulation of cells at G0/G1 phase at 400 nM incubated for 48 hrs by propidium iodide staining based flow cytometry analysis (Rvb=61.61%)", "type": "functional"}, "A549 [19]": {"tested_on": "A549", "assay": "Induction of cell cycle arrest in human A549 cells assessed as accumulation of cells at G2/M phase at 50 nM incubated for 48 hrs by propidium iodide staining based flow cytometry analysis (Rvb=23.88%)", "type": "functional"}, "A549 [20]": {"tested_on": "A549", "assay": "Induction of cell cycle arrest in human A549 cells assessed as accumulation of cells at G2/M phase at 100 nM incubated for 48 hrs by propidium iodide staining based flow cytometry analysis (Rvb=23.88%)", "type": "functional"}, "A549 [21]": {"tested_on": "A549", "assay": "Induction of cell cycle arrest in human A549 cells assessed as accumulation of cells at G2/M phase at 200 nM incubated for 48 hrs by propidium iodide staining based flow cytometry analysis (Rvb=23.88%)", "type": "functional"}, "A549 [22]": {"tested_on": "A549", "assay": "Induction of cell cycle arrest in human A549 cells assessed as accumulation of cells at G2/M phase at 800 nM incubated for 48 hrs by propidium iodide staining based flow cytometry analysis (Rvb=23.88%)", "type": "functional"}, "A549 [23]": {"tested_on": "A549", "assay": "Induction of cell cycle arrest in human A549 cells assessed as accumulation of cells at S phase at 50 nM incubated for 48 hrs by propidium iodide staining based flow cytometry analysis (Rvb=14.51%)", "type": "functional"}, "A549 [24]": {"tested_on": "A549", "assay": "Induction of cell cycle arrest in human A549 cells assessed as accumulation of cells at S phase at 200 nM incubated for 48 hrs by propidium iodide staining based flow cytometry analysis (Rvb=14.51%)", "type": "functional"}, "A549 [25]": {"tested_on": "A549", "assay": "Induction of cell cycle arrest in human A549 cells assessed as accumulation of cells at S phase at 400 nM incubated for 48 hrs by propidium iodide staining based flow cytometry analysis (Rvb=14.51%)", "type": "functional"}, "A549 [26]": {"tested_on": "A549", "assay": "Induction of cell cycle arrest in human A549 cells assessed as accumulation of cells at S phase at 800 nM incubated for 48 hrs by propidium iodide staining based flow cytometry analysis (Rvb=14.51%)", "type": "functional"}, "A549 [27]": {"tested_on": "A549", "assay": "Induction of apoptosis in human A549 cells assessed as early apoptotic cells at 5 uM incubated for 48 hrs by annexin V-FITC and propidium iodide based flow cytometry analysis (Rvb =12.289%)", "type": "functional"}, "A549 [28]": {"tested_on": "A549", "assay": "Induction of apoptosis in human A549 cells assessed as early apoptotic cells at 10 uM incubated for 48 hrs by annexin V-FITC and propidium iodide based flow cytometry analysis (Rvb =12.289%)", "type": "functional"}, "A549 [29]": {"tested_on": "A549", "assay": "Induction of apoptosis in human A549 cells assessed as late apoptotic cells at 5 uM incubated for 48 hrs by annexin V-FITC and propidium iodide based flow cytometry analysis (Rvb =9.696%)", "type": "functional"}, "A549 [30]": {"tested_on": "A549", "assay": "Induction of apoptosis in human A549 cells assessed as late apoptotic cells at 10 uM incubated for 48 hrs by annexin V-FITC and propidium iodide based flow cytometry analysis (Rvb =9.696%)", "type": "functional"}, "HCT-116 [31]": {"tested_on": "HCT-116", "assay": "Antitumor activity against human HCT-116 cells xenografted in mouse model assessed as reduction in tumor cells at 100 mg/kg administered via oral gavage for 28 days", "type": "functional, organism-based", "conditions": "time 28.0 day"}, "[32]": {"conditions": "human, microsomes", "description": "Metabolic stability in human liver microsome assessed as intrinsic clearance"}, "HCT-116 [33]": {"tested_on": "HCT-116", "assay": "cells", "conditions": "Homo sapiens"}, "in vitro": {"assay": "in vitro", "conditions": "human, liver microsomes"}}, "note": "Activity calls are given as the source filed them. The calls are words filed in the database; no cut-off is given here."}
{"compound": "CCCCCCN1CCC(CNC(=O)c2cccc(COCCC3CCN(c4nnc(NC(=O)Cc5ccccc5)s4)CC3)c2)CC1", "values": [{"measurement": "IC50", "setting": "A549 [1]", "value": 570, "unit": "nM"}, {"measurement": "IC50", "setting": "[2]", "value": 68, "unit": "nM"}, {"measurement": "Ratio", "setting": "A549 [3]", "value": 1.32}, {"measurement": "half-life", "setting": "[4]", "value": 9.9, "unit": "h"}, {"measurement": "half-life", "setting": "[5]", "value": 19.8, "unit": "h"}, {"measurement": "CL", "setting": "[6]", "value": 102, "unit": "mL/min/kg"}, {"measurement": "CL", "setting": "[7]", "value": 557, "unit": "mL/min/kg"}, {"measurement": "Cmax", "setting": "[8]", "value": 699, "unit": "ng/mL"}, {"measurement": "Cmax", "setting": "[9]", "value": 41.3, "unit": "ng/mL"}, {"measurement": "AUCt", "setting": "[10]", "value": 251.6, "unit": "ng·h/mL"}, {"measurement": "Activity", "setting": "A549 [11]", "value": 40.9, "unit": "%"}, {"measurement": "F", "setting": "[12]", "value": 12.4, "unit": "%"}, {"measurement": "Activity", "setting": "HCT-116 [13]", "value": 42, "unit": "%"}, {"measurement": "inhibition", "setting": "A549 [14]", "value": "Active"}, {"measurement": "inhibition", "setting": "HCT-116 [15]", "value": "Active"}, {"measurement": "Activity", "setting": "A549 [16]", "value": "Dose-Dependent Effect"}, {"measurement": "Activity", "setting": "A549 [17]", "value": 64.94, "unit": "%"}, {"measurement": "Activity", "setting": "A549 [18]", "value": 67.53, "unit": "%"}, {"measurement": "Activity", "setting": "A549 [19]", "value": 24.1, "unit": "%"}, {"measurement": "Activity", "setting": "A549 [20]", "value": 17.3, "unit": "%"}, {"measurement": "Activity", "setting": "A549 [21]", "value": 19.72, "unit": "%"}, {"measurement": "Activity", "setting": "A549 [22]", "value": 19.67, "unit": "%"}, {"measurement": "Activity", "setting": "A549 [23]", "value": 13.17, "unit": "%"}, {"measurement": "Activity", "setting": "A549 [24]", "value": 13.34, "unit": "%"}, {"measurement": "Activity", "setting": "A549 [25]", "value": 13.76, "unit": "%"}, {"measurement": "Activity", "setting": "A549 [26]", "value": 11.77, "unit": "%"}, {"measurement": "Activity", "setting": "A549 [27]", "value": 20.673, "unit": "%"}, {"measurement": "Activity", "setting": "A549 [28]", "value": 16.025, "unit": "%"}, {"measurement": "Activity", "setting": "A549 [29]", "value": 16.368, "unit": "%"}, {"measurement": "Activity", "setting": "A549 [30]", "value": 68.08, "unit": "%"}, {"measurement": "Activity", "setting": "HCT-116 [31]", "value": "Active"}, {"measurement": "CLH", "setting": "[32]", "value": 15.6, "unit": "g/mL/min"}, {"measurement": "IC50", "setting": "HCT-116 [33]", "value": 420, "unit": "nM"}, {"measurement": "half-life", "setting": "in vitro", "value": "> 2", "unit": "h"}]}
